From paper PMC13250620

Key:
[1] = Pd(0) Larock indole macrocyclisation (aryl C-Br + TES-alkyne, ArNHAc; forms Trp C3a-C3 and N1-C2 bonds); Pd(OAc)2 0.5 eq, tBu3P·HBF4 1.0 eq, DIPEA 10 eq; details: the molecule shown is the open-chain precursor; 16-membered ring; toluene; 20.0 mM; 110.0 °C; 12.0 h; 5 steps
[2] = Pd(0) Larock indole macrocyclisation (aryl C-Br + TES-alkyne); Pd(OAc)2 0.5 eq, tBu3P·HBF4 1.0 eq, DIPEA 10 eq for 54; 32 by previously reported procedure; details: the molecule shown is the open-chain precursor, 110.0 °C

| SMILES | ring closure, yield over several steps [1] | further results |
| --- | --- | --- |
| CC[Si](C#CC[C@H](NC(=O)[C@@H]1CCCN1C(=O)[C@H](Cc1ccc(F)c(-c2ccc(NC(C)=O)c(Br)c2)c1)NC(=O)OC(C)(C)C)C(=O)OC)(CC)CC [Boc-Phe(4-F, 3-(4-NHAc-3-Br-phenyl))-Pro-Pra(TES)-OMe] | 31% |  |
| CC[Si](C#CC[C@H](NC(=O)OC(C)(C)C)C(=O)N[C@@H](C)C(=O)N[C@@H](CC(C)C)C(=O)N[C@@H](Cc1ccc(OC)c(-c2ccc(Br)c(N)c2)c1)C(=O)OC)(CC)CC [Boc-Pra(TES)-Ala-Leu-Tyr(OMe, 3-(3-NH2-4-Br-phenyl))-OMe] |  | ring closure, isolated yield ([2]; 20-membered ring;, 12.0 h): 79% |
| CC[Si](C#CC[C@H](NC(=O)[C@@H]1CCCN1C(=O)[C@H](Cc1ccc(OC)c(-c2ccc(NC(C)=O)c(Br)c2)c1)NC(=O)OC(C)(C)C)C(=O)OC)(CC)CC [Boc-Tyr(OMe, 3-(4-NHAc-3-Br-phenyl))-Pro-Pra(TES)-OMe] |  | ring closure, isolated yield ([2]; 16-membered ring;): 45% |
| CC[Si](C#CC[C@H](NC(=O)[C@@H]1CCCN1C(=O)[C@H](Cc1cccc(-c2ccc(NC(C)=O)c(Br)c2)c1)N1C(=O)c2ccccc2C1=O)C(=O)OC)(CC)CC [Phth-Phe(3-(4-NHAc-3-Br-phenyl))-Pro-Pra(TES)-OMe] | 30% |  |
| CC[Si](C#CC[C@H](NC(=O)[C@@H]1CCCN1C(=O)[C@H](Cc1ccc(C)c(-c2ccc(NC(C)=O)c(Br)c2)c1)N1C(=O)c2ccccc2C1=O)C(=O)OC)(CC)CC [Phth-Phe(4-Me, 3-(4-NHAc-3-Br-phenyl))-Pro-Pra(TES)-OMe] | 39% |  |
| CC[Si](C#CC[C@H](NC(=O)[C@@H]1CCCN1C(=O)[C@H](Cc1cc(F)cc(-c2ccc(NC(C)=O)c(Br)c2)c1)N1C(=O)c2ccccc2C1=O)C(=O)OC)(CC)CC [Phth-Phe(5-F, 3-(4-NHAc-3-Br-phenyl))-Pro-Pra(TES)-OMe] | 23% |  |
